From US20260293897A1, “COMPOUND CONTAINING FIVE-MEMBERED HETEROCYCLE, PREPARATION METHOD THEREFOR, AND APPLICATION THEREOF” (QINGDAO KANGQIAO PESTICIDES AND CHEMICALS GROUP CO., LTD., priority 2022, published 2026)
Like-named read-outs stand apart in the source and are kept apart here.

How the values were obtained:
Type in all cases: in vivo
Tetranychus cinnabarinus = Tetranychus cinnabarinus Controlling Activity Test; settings: 72 h; for mortality at 1.6 ppm: read-out: mortality against Tetranychus cinnabarinus; for mortality at 1.56 ppm / mortality at 3.125 ppm / mortality at 6.25 ppm / mortality at 12.5 ppm: in Phaseolus vulgaris
Method: Tetranychus cinnabarinus Controlling Activity Test:
The test compound was dissolved in acetone and diluted to the desired concentration with 0.1 wt % aqueous tween 80, the acetone content not exceeding 5 wt %.
One real leaf was removed from kidney bean seedlings grown to two real leaves, inoculating Tetranychus cinnabarinus, investigating the base number, performing whole plant spraying treatment by using a handheld sprayer, repeating the treatment for 3 times (the application amount of the preparation is about 0.5 g), observing in a constant-temperature observation room after the treatment, investigating the number of live mites after 72 hours, and calculating the mortality. The number of Tetranychus cinnabarinus inoculated in each time is 35-100.
Mortality%=(number of inoculated insects−number of live insects after drug administration)÷number of inoculated insects×100%

Spodoptera frugiperda = Spodoptera frugiperda Indoor Toxicity Determination Test; settings: in Zea mays, read-out: mortality against Spodoptera frugiperda
Description: Spodoptera frugiperda Indoor Toxicity Determination Test
Test targets: Spodoptera frugiperda, 3rd instar larvae, a sensitive strain raised indoors.
The test method comprises the following steps: firstly, selecting fresh corn leaves cultivated in a greenhouse, cutting the fresh corn leaves into 5 cm-long leaf segments, sequentially arranging the test design from low dose to high dose, soaking the fresh corn leaves in prepared liquid medicine for 10 s, naturally drying the fresh corn leaves in the shade, then placing the dried corn leaves in a culture dish with filter paper and the diameter of 9 cm, inoculating regular healthy test insects, n=10, repeating the treatment for 3 times, and additionally arranging blank control.

Phyllotreta striolata = Phyllotreta striolata Controlling Activity Test; settings: 72 h, read-out: mortality against Phyllotreta striolata
Method: Phyllotreta striolata Controlling Activity Test:
Preparing liquid medicine according to the experimental design concentration, selecting fresh cabbage leaves, soaking the cabbage leaves for 15 s, taking out, airing, placing in a glass tube, connecting 20-25 heads of the Flea beetles adults with each tube, repeating the treatment for 3 times, investigating the death condition of the Phyllotreta striolata after 72 hours, and calculating and correcting the death rate.

[1] = test system: Frankliniella occidentalis larvae; test: Frankliniella occidentalis Larva Controlling Activity Test; settings: 72 h; for mortality at 3.25 ppm: read-out: mortality for Frankliniella occidentalis larvae; for mortality at 1.56 ppm / mortality at 3.125 ppm / mortality at 6.25 ppm: in Brassica oleracea
Method: Frankliniella occidentalis Larva Controlling Activity Test:
The test compound is dissolved in acetone and diluted to the desired concentration. 0.5 mL of the prepared acetone medicinal liquid is added into a glass tube (the inner diameter is 1 cm, the length is 10 cm), and the glass tube is repeatedly rolled on a flat table until the acetone solution is completely volatilized. Soaking cabbage leaves in the liquid medicine with the corresponding concentration for 15 s, drying, placing in a glass tube, inoculating 10-20 heads of Frankliniella occidentalis larvae in the glass tube, repeating the treatment for three times, observing in a constant-temperature observation room after the treatment, investigating the number of live insects after 72 hours, and calculating the mortality.

[2] = test system: Sensitive Plutella xylostella; test: Sensitive Plutella xylostella Controlling Activity Test
Description: Sensitive Plutella xylostella Controlling Activity Test:
Test targets: Plutella xylostella, 3 rd instar larvae, a sensitive strain raised indoors.
The test method comprises the following steps: selecting fresh cabbage leaves cultivated in a greenhouse, making the cabbage leaves into round with the diameter of 3 cm by using a puncher, putting the circular blade into prepared liquid medicine to be soaked for 10 s according to the sequence from low dose to high dose of experimental design, naturally drying the cabbage leaves in the shade, putting the soaked cabbage leaves into a culture dish with filter paper and the diameter of 9 cm, inoculating regular healthy test insects, n=10, repeating the treatment for 3 times, and additionally setting blank control.

[3] = test system: Resistant Plutella xylostella; test: Resistant Plutella xylostella Controlling Activity Test; settings: for Mortality (%): 0.2 ppm, 2nd instar, resistant, radish leaves dipped 10 s, 72 h (three days); for mortality at 0.2 ppm / mortality at 1 ppm / mortality at 5 ppm: Plutella xylostella, in Raphanus sativus, 72 h
Method: Resistant Plutella xylostella Controlling Activity Test:
Leaf dipping method was used, the appropriate amount of radish leaves were dipped into the drug for 10 s, placed in a plastic petri dish padded with filter paper and dried naturally, each dish was connected with 10 heads of 2nd instar small cabbage moths, placed in the observation room at 24° C. and light (16/8 h). 72 h later observation was made, and the body of the insect was touched lightly with a brush and no reaction was regarded as a dead insect, which was repeated for three times, and a blank control was also set up without any additional agent.

[4] = read-out: mortality against Plutella xylostella

Row | Compound | mortality at 1.6 ppm (Tetranychus cinnabarinus) | mortality at 1.56 ppm (Tetranychus cinnabarinus) | mortality at 3.125 ppm (Tetranychus cinnabarinus) | mortality at 6.25 ppm (Tetranychus cinnabarinus) | mortality at 12.5 ppm (Tetranychus cinnabarinus) | mortality at 1 ppm (Spodoptera frugiperda) | mortality at 50 ppm (Phyllotreta striolata) | mortality at 3.25 ppm [1] | mortality at 1.56 ppm [1] | mortality at 3.125 ppm [1] | mortality at 6.25 ppm [1] | mortality at 0.333 ppm ([2]; in Brassica oleracea, 72 h) | mortality at 1 ppm ([2]; in Brassica oleracea, 72 h) | mortality at 1 ppm [2, 4] | Mortality (%) [3] | mortality at 0.2 ppm [3] | mortality at 1 ppm [3] | mortality at 5 ppm [3]
1 | Cc1cc(C2=NOC(c3cc(Cl)c(F)c(Cl)c3)(C(F)(F)F)C2)ccc1C(=O)NC1CCS(=O)(=O)C1.I (stereo not drawn) [Compound I-1, 4-(5-(3,5-dichloro-4-fluorophenyl)-5-(trifluoromethyl)-4,5-dihydroisoxazol-3-yl)-N-(1,1-dioxotetrahydrothiophen-3-yl)-2-methylbenzamide] | > 90% | 94.3% | 100% | 100% | 100% | > 90% | > 90% | > 90% | 100% | 100% | 100% | 80% | 100% | > 90% | 100% | 100% | 100% | 100%
2 | Cc1cc(C2=NOC(c3cc(C(F)(F)F)cc(C(F)(F)F)c3)(C(F)(F)F)C2)ccc1C(=O)NC1CCS(=O)(=O)C1 (stereo not drawn) [Compound I-25, 4-(5-(3,5-bis(trifluoromethyl)phenyl)-5-(trifluoromethyl ester)-4,5-dihydroisoxazol-3-yl)-N-(1,1-dioxotetrahydrothiophen-3-yl)-2-methylbenzamide] | > 90% | 90.3% | 99.3% | 100% | 100% | > 90% | > 90% | > 90% | 100% | 100% | 100% | 65% | 100% | > 90% | 100% | 100% | 100% | 100%
